Like-named read-outs stand apart in the source and are kept apart here.
Assays:
[1] = Double-blind multiple oral dose pharmacokinetics in male healthy volunteers
Experimental: The study was designed to compare the pharmacokinetic profile of Compound I from the following dose regimens: • A: Administration of 1 capsule containing 50 mg of Compound I or of 1 capsule of placebo, three times a day, total dose 150 mg. • B: Administration of 1 capsule containing 100 mg of Compound I or of 1 capsule of placebo, three times a day, total dose 300 mg.
The treatments were applied in parallel groups. […] The study was conducted according to the study protocol and in accordance with GCP.

[2] = human, in vivo
mSOD1^(G93A) mice = test: Lifespan and disease progression in mSOD1(G93A) ALS mice; assay type: in vivo, mouse
Experimental: Nat. Med. 10(4), p. 345-7 (2004), which is incorporated by reference.
Thus, Compound I-treated mice lived an average of 153 days (±2.6 SEM, n=7). This represents a significant increase in lifespan of over 22% (p=<0.001). The effect of beginning Compound I treatment at the time of disease onset was also tested by starting treatment at 70 days of age, when the first signs of locomotor defects are observed. Compound I treatment from 70 days of age extended the mean lifespan of mSOD1^(G93A) mice by 23 days, from 125 days (±1.8 SEM, n=18) in the untreated group to 148 days (±1.5 SEM, n=5) in the treated group. This represents an increase in lifespan of 18% (p=<0.001).

[3] = 69 assigned to treatment, 100 mg tid, 6 months
[4] = number of patients, open-label 100 mg tid
[5] = vs placebo cohort of the Celebrex® study (historical control)
[6] = treatment from 70 days of age, vs untreated

Experimental for patients with ALS: An open label extension study was conducted in patients from Example 23 who completed 12 weeks of treatment and a Week 16 Follow-up Visit. Subjects received 100 mg tid Compound I daily for approximately six months. Visits occurred at Screening, Baseline, and once a month for six months (total of 8 visits). A telephone call at Month 7 ended subject participation in the study.
Disease Progression: There are four main indicators of disease progression that can be measured accurately in these time frames; ALSFRS-R, % VC, weight, and body mass index. The analysis assumed that any subject who dropped out (or died) had the worst possible outcome, based on an analysis by Finkelstein and Schoenfeld (Stat. Med. 1999 18:1341-54). This non-parametric analysis orders outcomes so that subjects who dropped out (or died) were considered to have a worse outcome than subjects who lived. For comparison these characteristics for the placebo group in the Celebrex® trial are included.

[O-][n+]1cccc(/C(Cl)=N/OC[C@H](O)CN2CCCCC2)c1 [Compound I, N-[2-hydroxy-3-(1-piperidinyl)-propoxy]-pyridine-1-oxide-3-carboximidoyl chloride]
safety and tolerability (patients with ALS; 6 month dosing): safe and well tolerated
% Early Study Medication Discontinuation (patients with ALS; [3]): 11.6%
Completed Trial on Treatment (patients with ALS; [3]): 61
Early Study Medication Discontinuation (patients with ALS; [3]): 8
treatment discontinuation: Adverse Event (patients with ALS; [4]): 1
treatment discontinuation: Death (patients with ALS; [4]): 1
treatment discontinuation: Other Reasons (patients with ALS; [4]): 0
treatment discontinuation: Reason not listed (patients with ALS; [4]): 0
treatment discontinuation: Withdrew Consent (patients with ALS; [4]): 6
# Early Study Medication Discontinuations per Month (patients with ALS; over 6-months): 1.33
rate of ALSFRS-R decline (patients with ALS; patients co-administered with riluzole vs without): no apparent difference
progression of Vital Capacity (VC) (patients with ALS; patients treated with riluzole in addition to Compound I vs those not treated with riluzole): appeared to progress more slowly
change in serum creatinine levels (patients with ALS; screening vs 6-month): no significant change
slower decline by % VC (patients with ALS; [5]): 7.6%
slower decline by ALSFRS-R (patients with ALS; [5]): 21.4%
slower decline by BMI (patients with ALS; [5]): 20.4%
slower decline by weight (patients with ALS; [5]): 22.8%
dose-adjusted AUC0-8 h ratio (2×50 mg dosing level/100 mg dosing level) ([1]; Day 1): 0.95
dose-adjusted Cmax ratio (2×50 mg dosing level/100 mg dosing level) ([1]; Day 1): 0.94
dose-adjusted AUC0-8 h ratio (2×50 mg dosing level/100 mg dosing level) ([1]; Day 10): 1.02
dose-adjusted Cmax ratio (2×50 mg dosing level/100 mg dosing level) ([1]; Day 10): 0.88
Racc accumulation ratio = AUC0-8 Day 10/AUC0-8 Day 1, GeoM ([1]; Treatment A, 50 mg tid): 1.512
Racc accumulation ratio = AUC0-8 Day 10/AUC0-8 Day 1, MEAN ([1]; Treatment A, 50 mg tid): 1.525
Racc accumulation ratio = AUC0-8 Day 10/AUC0-8 Day 1, MEAN ([1]; Treatment B, 100 mg tid): 1.426
Racc accumulation ratio = AUC0-8 Day 10/AUC0-8 Day 1, GeoM ([1]; continuation of Treatment B (100 mg tid) under a head printed as Treatment A): 1.415
AUC0-inf, GeoM ([1]; human, in vivo, 50 mg): 680 ng·h/mL
AUC0-inf, MEAN ([1]; human, in vivo, 50 mg): 691 ng·h/mL
AUC0-tz, GeoM ([1]; human, in vivo, 50 mg): 621 ng·h/mL
AUC0-tz, MEAN ([1]; human, in vivo, 50 mg): 632 ng·h/mL
LinPK = AUC0-8 Day 10/AUC0-inf, GeoM ([1]; human, in vivo, 50 mg): 1.148
LinPK = AUC0-8 Day 10/AUC0-inf, MEAN ([1]; human, in vivo, 50 mg): 1.166
AUC0-8, MEAN ([1]; human, in vivo, 100 mg): 1101 ng·h/mL
AUC0-inf, GeoM ([1]; human, in vivo, 100 mg): 1303 ng·h/mL
AUC0-inf, MEAN ([1]; human, in vivo, 100 mg): 1344 ng·h/mL
AUC0-tz, GeoM ([1]; human, in vivo, 100 mg): 1266 ng·h/mL
AUC0-tz, MEAN ([1]; human, in vivo, 100 mg): 1307 ng·h/mL
AUCt, MEAN ([1]; human, in vivo, 100 mg): 1540 ng·h/mL
LinPK = AUC0-8 Day 10/AUC0-inf, GeoM ([1]; human, in vivo, 100 mg): 1.172
LinPK = AUC0-8 Day 10/AUC0-inf, MEAN ([1]; human, in vivo, 100 mg): 1.187
amount of metabolite No. 1 (human hepatocytes): 0.64 % of the total radioactivity
amount of metabolite No. 2 (human hepatocytes): 0.60 % of the total radioactivity
amount of metabolite No. 3 (human hepatocytes): 0.80 % of the total radioactivity
amount of metabolite No. 4 (human hepatocytes): 0.62 % of the total radioactivity
amount of metabolite No. 5 (bimoclomol) (human hepatocytes): 2.59 % of the total radioactivity
clearance (human hepatocytes; human, hepatocytes): 0.040 mL/h
t1/2 (human hepatocytes; human, hepatocytes): 17.2 h
route of removal [2]: mostly removed unchanged in urine
Mean t1/2 values ([2]; po): 2.5 to 6.2 h
Tmax values ([2]; po): 0.5 to 1.1 h
t1/2 ([2]; po): 4 h
AUC(0-t), GeoMean ([2]; po, 50 mg): 590 ng·h/mL
AUC(0-t), Mean ([2]; po, 50 mg): 600 ng·h/mL
AUC, GeoMean ([2]; po, 50 mg): 640 ng·h/mL
AUC, Mean ([2]; po, 50 mg): 650 ng·h/mL
Cmax, GeoMean ([2]; po, 50 mg): 160 ng/mL
Cmax, Mean ([2]; po, 50 mg): 170 ng/mL
MRT, GeoMean ([2]; po, 50 mg): 3.4 h
MRT, Mean ([2]; po, 50 mg): 3.5 h
Tmax, GeoMean ([2]; po, 50 mg): 0.82 h
Tmax, Mean ([2]; po, 50 mg): 0.9 h
t½, GeoMean ([2]; po, 50 mg): 3 h
t½, Mean ([2]; po, 50 mg): 3.1 h
AUC(0-t), GeoMean ([2]; po, 100 mg): 1400 ng·h/mL
AUC(0-t), Mean ([2]; po, 100 mg): 1400 ng·h/mL
AUC, GeoMean ([2]; po, 100 mg): 1600 ng·h/mL
AUC, Mean ([2]; po, 100 mg): 1600 ng·h/mL
Cmax, GeoMean ([2]; po, 100 mg): 390 ng/mL
Cmax, Mean ([2]; po, 100 mg): 400 ng/mL
MRT, GeoMean ([2]; po, 100 mg): 3.7 h
MRT, Mean ([2]; po, 100 mg): 3.8 h
Tmax, GeoMean ([2]; po, 100 mg): 1 h
Tmax, Mean ([2]; po, 100 mg): 1.1 h
t½, GeoMean ([2]; po, 100 mg): 3.5 h
t½, Mean ([2]; po, 100 mg): 3.7 h
AUC(0-t), GeoMean ([2]; po, 200 mg): 2700 ng·h/mL
AUC(0-t), Mean ([2]; po, 200 mg): 2700 ng·h/mL
AUC, GeoMean ([2]; po, 200 mg): 2800 ng·h/mL
AUC, Mean ([2]; po, 200 mg): 2800 ng·h/mL
Cmax, GeoMean ([2]; po, 200 mg): 890 ng/mL
Cmax, Mean ([2]; po, 200 mg): 890 ng/mL
MRT, GeoMean ([2]; po, 200 mg): 3.7 h
MRT, Mean ([2]; po, 200 mg): 3.8 h
Tmax, GeoMean ([2]; po, 200 mg): 0.82 h
Tmax, Mean ([2]; po, 200 mg): 0.9 h
t½, GeoMean ([2]; po, 200 mg): 3.1 h
t½, Mean ([2]; po, 200 mg): 3.1 h
AUC(0-t), GeoMean ([2]; po, 400 mg): 6200 ng·h/mL
AUC(0-t), Mean ([2]; po, 400 mg): 6300 ng·h/mL
AUC, GeoMean ([2]; po, 400 mg): 6300 ng·h/mL
AUC, Mean ([2]; po, 400 mg): 6400 ng·h/mL
Cmax, GeoMean ([2]; po, 400 mg): 1800 ng/mL
Cmax, Mean ([2]; po, 400 mg): 1800 ng/mL
MRT, GeoMean ([2]; po, 400 mg): 4.5 h
MRT, Mean ([2]; po, 400 mg): 4.5 h
Tmax, GeoMean ([2]; po, 400 mg): 0.82 h
Tmax, Mean ([2]; po, 400 mg): 0.9 h
t½, GeoMean ([2]; po, 400 mg): 4 h
t½, Mean ([2]; po, 400 mg): 4.1 h
AUC(0-t), GeoMean ([2]; po, 600 mg): 8900 ng·h/mL
AUC(0-t), Mean ([2]; po, 600 mg): 9100 ng·h/mL
AUC, GeoMean ([2]; po, 600 mg): 9000 ng·h/mL
AUC, Mean ([2]; po, 600 mg): 9200 ng·h/mL
Cmax, GeoMean ([2]; po, 600 mg): 2900 ng/mL
Cmax, Mean ([2]; po, 600 mg): 3000 ng/mL
MRT, GeoMean ([2]; po, 600 mg): 3.9 h
MRT, Mean ([2]; po, 600 mg): 4 h
Tmax, GeoMean ([2]; po, 600 mg): 0.5 h
Tmax, Mean ([2]; po, 600 mg): 0.5 h
t½, GeoMean ([2]; po, 600 mg): 4.2 h
t½, Mean ([2]; po, 600 mg): 4.3 h
AUC(0-t), GeoMean ([2]; po, 800 mg): 12000 ng·h/mL
AUC(0-t), Mean ([2]; po, 800 mg): 12000 ng·h/mL
AUC, GeoMean ([2]; po, 800 mg): 12000 ng·h/mL
AUC, Mean ([2]; po, 800 mg): 12000 ng·h/mL
Cmax, GeoMean ([2]; po, 800 mg): 3700 ng/mL
Cmax, Mean ([2]; po, 800 mg): 3800 ng/mL
MRT, GeoMean ([2]; po, 800 mg): 4.1 h
MRT, Mean ([2]; po, 800 mg): 4.1 h
Tmax, GeoMean ([2]; po, 800 mg): 0.76 h
Tmax, Mean ([2]; po, 800 mg): 0.8 h
t½, GeoMean ([2]; po, 800 mg): 3.4 h
t½, Mean ([2]; po, 800 mg): 3.5 h
average lifespan (mSOD1^(G93A) mice; 10 mg/kg ip daily from 35 days of age, untreated 125 days): 153 days
mean lifespan (mSOD1^(G93A) mice; 10 mg/kg ip daily from 70 days of age, untreated 125 days): 148 days
progression of disease (mSOD1^(G93A) mice; ALS transgenic mouse model): significantly delayed the progression of disease
extension of survival (mSOD1^(G93A) mice; given pre-symptomatically and at disease onset, study rationale statement): five weeks
increase in lifespan (mSOD1^(G93A) mice; treatment from 35 days of age, vs untreated): over 22%
extension of mean lifespan (mSOD1^(G93A) mice; [6]): 23 days
increase in lifespan (mSOD1^(G93A) mice; [6]): 18%

Reference: US20080227813A1, “Pharmaceutical compositions and methods for treating diseases associated with neurodegeneration” (priority 2006, published 2008)
